Calls of active or inactive are those of the source. The calls are words filed in the database; no cut-off is given here.
Assays:
[1] = tested on: SK-HEP1; assay: Antiproliferative activity against human SK-HEP1 cells assessed as increase in miR-106b-5p level at 20 uM by qRT-PCR analysis; type: functional, cell-based
[2] = tested on: SK-HEP1; assay: Antiproliferative activity against human SK-HEP1 cells assessed as increase in miR-21-5p level at 20 uM by qRT-PCR analysis; type: functional, cell-based
[3] = tested on: SK-HEP1; assay: Antiproliferative activity against human SK-HEP1 cells assessed as increase in miR-26a-5p level at 20 uM by qRT-PCR analysis; type: functional, cell-based
[4] = tested on: SK-HEP1; assay: Antiproliferative activity against human SK-HEP1 cells assessed as increase in miR-22-5p level at 20 uM by qRT-PCR analysis; type: functional, cell-based
[5] = tested on: SK-HEP1; assay: Antiproliferative activity against human SK-HEP1 cells assessed as decrease in miR135a-5p level at 20 uM by qRT-PCR analysis; type: functional, cell-based
[6] = tested on: Huh-7; assay: Antiproliferative activity against human Huh-7 cells incubated for 24 hrs by alamar blue assay; conditions: Huh-7, 24 h
[7] = tested on: HeLa; assay: Antiproliferative activity against human HeLa cells incubated for 24 hrs by alamar blue assay
[8] = tested on: HCT-116; assay: Antiproliferative activity against human HCT-116 cells incubated for 24 hrs by alamar blue assay; conditions: HCT-116, 24 h
[9] = Antiproliferative activity against human QSG7701 cells incubated for 24 hrs by alamar blue assay; type: functional, cell-based; conditions: QSG7701, 24 h
[10] = tested on: HCT-116; assay: Inhibition of colony formation in human HCT-116 cells at 30 uM incubated for 14 days by crystal violet staining based assay; type: functional, cell-based; conditions: time 14.0 day
[11] = tested on: HepG2; assay: Inhibition of colony formation in human HepG2 cells at 30 uM incubated for 14 days by crystal violet staining based assay; type: functional, cell-based; conditions: time 14.0 day
[12] = tested on: MHCC97; assay: Inhibition of colony formation in human MHCC97H cells at 30 uM incubated for 14 days by crystal violet staining based assay; type: functional, cell-based; conditions: time 14.0 day
[13] = tested on: Huh-7; assay: Inhibition of colony formation in human Huh-7 cells at 30 uM incubated for 14 days by crystal violet staining based assay; type: functional, cell-based; conditions: time 14.0 day
[14] = tested on: HeLa; assay: Inhibition of colony formation in human HeLa cells at 30 uM incubated for 14 days by crystal violet staining based assay; type: functional, cell-based; conditions: time 14.0 day
[15] = tested on: MHCC97; assay: Inhibition of cell migration in human MHCC97H cells at 30 uM incubated for 12 hrs by crystal violet staining based transwell assay; type: functional
[16] = tested on: SK-HEP1; assay: Inhibition of cell invasion in human SK-HEP1 cells at 30 uM incubated for 12 hrs by crystal violet staining based transwell assay; type: functional
[17] = tested on: SK-HEP1; assay: Inhibition of epithelial-mesenchymal transition in human SK-HEP1 cells assessed as change in vimentin expression at 10 to 50 uM incubated for 24 hrs by Western blot analysis; type: functional, cell-based; conditions: dose 10-50 µM
[18] = tested on: SK-HEP1; assay: Inhibition of epithelial-mesenchymal transition in human SK-HEP1 cells assessed as change in beta-catenin expression at 10 to 50 uM incubated for 24 hrs by Western blot analysis; type: functional, cell-based; conditions: dose 10-50 µM
[19] = tested on: MHCC97; assay: Antitumor activity in human MHCC97 cells xenografted in SCID mouse assessed as suppression of tumor growth at 20 mg/kg, ip administered once every 3 day for 30 days by bioluminescence analysis; type: functional, organism-based; conditions: time 30.0 day
[20] = tested on: MHCC97; assay: Antitumor activity in human MHCC97 cells xenografted in SCID mouse assessed as suppression of tumor growth at 40 mg/kg, ip administered once every 3 day for 30 days by bioluminescence analysis; type: functional, organism-based; conditions: time 30.0 day
[21] = tested on: MHCC97; assay: Antimetastatic activity against human MHCC97 cells xenografted in SCID mouse assessed as decrease in liver metastasis at 20 mg/kg, ip administered once every 3 days and measured after 10 days; type: functional, organism-based; conditions: time 10.0 day
[22] = Toxicity in SCID mouse xenografted with human MHCC97 cells assessed as increase in body weight at 40 mg/kg, ip administered once every 3 day for 30 days; type: organism-based; conditions: in vivo, 720 h, time 30 day
[23] = tested on: MHCC97; assay: Antitumor activity in human MHCC97 cells xenografted in SCID mouse assessed as reduction in infiltration of inflammatory cells in left outer lobe of liver at 40 mg/kg, ip administered once every 3 days measured after 30 days by H and E staining based immunohistochemical analysis; type: functional, organism-based; conditions: time 30.0 day
[24] = tested on: SK-HEP1; assay: Effect on human SK-HEP1 cells assessed as increase in miR-497-5p level by qRT-PCR analysis; type: functional, cell-based
[25] = tested on: SK-HEP1; assay: Effect on human SK-HEP1 cells assessed as decrease in miR-224-5p level at 10 to 50 uM by qRT-PCR analysis; type: functional, cell-based; conditions: dose 10-50 µM
[26] = biological target: Transcription factor p65 (Homo sapiens) (UniProt Q04206); assay: Inhibition of p65 phosphorylation in human SK-HEP1 cells at 30 uM by Western blot analysis; type: cell-based
[27] = biological target: Serine/threonine-protein kinase AKT (Homo sapiens) (UniProt P31751+Q9Y243+P31749); assay: Inhibition of AKT phosphorylation in human SK-HEP1 cells at 30 uM by Western blot analysis; type: cell-based
[28] = biological target: Mitogen-activated protein kinase; ERK1/ERK2 (Homo sapiens) (UniProt P27361+P28482); assay: Inhibition of ERK1/2 phosphorylation in human SK-HEP1 cells at 30 uM by Western blot analysis; type: cell-based
[29] = biological target: Signal transducer and activator of transcription 3 (Homo sapiens) (UniProt P40763); assay: Inhibition of STAT3 phosphorylation in human SK-HEP1 cells at 30 uM by Western blot analysis; type: cell-based
[30] = tested on: Mus musculus; assay: Downregulation of UBE2S expression in mouse liver at 40 mg/kg measured after 30 days by immunohistochemical staining analysis; type: functional, organism-based; conditions: time 30.0 day
[31] = tested on: SK-HEP1; assay: Inhibition of cell migration in human SK-HEP1 cells overexpressing TRBP at 20 uM measured after 12 hrs using crystal violet staining inverted microscope based transwell assay; type: functional
[32] = tested on: SK-HEP1; assay: Inhibition of cell migration in human SK-HEP1 cells knockdown TRBP at 20 uM measured after 12 hrs using crystal violet staining inverted microscope based transwell assay; type: functional
[33] = tested on: SK-HEP1; assay: Antiproliferative activity against human SK-HEP1 cells assessed as increase in miR-122-5p level at 20 uM by qRT-PCR analysis; type: functional, cell-based
[34] = tested on: SK-HEP1; assay: Antiproliferative activity against human SK-HEP1 cells assessed as increase in miR-214-5p level at 20 uM by qRT-PCR analysis; type: functional, cell-based
[35] = tested on: SK-HEP1; assay: Antiproliferative activity against human SK-HEP1 cells assessed as increase in miR-224-5p level at 20 uM by qRT-PCR analysis; type: functional, cell-based
[36] = tested on: SK-HEP1; assay: Antiproliferative activity against human SK-HEP1 cells assessed as increase in miR-222-5p level at 20 uM by qRT-PCR analysis; type: functional, cell-based
[37] = tested on: SK-HEP1; assay: Antiproliferative activity against human SK-HEP1 cells assessed as increase in miR-10a-5p level at 20 uM by qRT-PCR analysis; type: functional, cell-based
[38] = tested on: MHCC97; assay: Antiproliferative activity against human MHCC97 cells at 25 uM incubated for 24 hrs by alamar blue assay; type: functional, cell-based
[39] = tested on: HCT-116; assay: Antiproliferative activity against human HCT-116 cells at 25 uM incubated for 24 hrs by alamar blue assay; type: functional, cell-based
[40] = tested on: SK-HEP1; assay: Effect on AGO2 protein expression in human SK-HEP1 cells at 30 uM after 24 hrs by immunoblot analysis; type: functional, cell-based

Chain of Serine/threonine-protein kinase AKT (Homo sapiens) (P31749 whole entry, looked up): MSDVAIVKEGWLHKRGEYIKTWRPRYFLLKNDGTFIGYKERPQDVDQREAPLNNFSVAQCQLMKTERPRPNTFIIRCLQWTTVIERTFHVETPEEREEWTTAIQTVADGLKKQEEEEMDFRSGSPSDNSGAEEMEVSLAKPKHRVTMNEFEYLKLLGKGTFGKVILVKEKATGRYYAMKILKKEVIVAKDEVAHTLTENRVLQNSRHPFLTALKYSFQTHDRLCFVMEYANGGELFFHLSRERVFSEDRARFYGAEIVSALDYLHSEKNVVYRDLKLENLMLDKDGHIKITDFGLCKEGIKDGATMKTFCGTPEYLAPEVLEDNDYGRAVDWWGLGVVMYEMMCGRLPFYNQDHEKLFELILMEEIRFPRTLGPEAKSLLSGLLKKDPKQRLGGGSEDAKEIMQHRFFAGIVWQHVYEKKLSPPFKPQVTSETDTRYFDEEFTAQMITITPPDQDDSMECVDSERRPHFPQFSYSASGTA
Chain of Serine/threonine-protein kinase AKT (Homo sapiens) (P31751 whole entry, looked up): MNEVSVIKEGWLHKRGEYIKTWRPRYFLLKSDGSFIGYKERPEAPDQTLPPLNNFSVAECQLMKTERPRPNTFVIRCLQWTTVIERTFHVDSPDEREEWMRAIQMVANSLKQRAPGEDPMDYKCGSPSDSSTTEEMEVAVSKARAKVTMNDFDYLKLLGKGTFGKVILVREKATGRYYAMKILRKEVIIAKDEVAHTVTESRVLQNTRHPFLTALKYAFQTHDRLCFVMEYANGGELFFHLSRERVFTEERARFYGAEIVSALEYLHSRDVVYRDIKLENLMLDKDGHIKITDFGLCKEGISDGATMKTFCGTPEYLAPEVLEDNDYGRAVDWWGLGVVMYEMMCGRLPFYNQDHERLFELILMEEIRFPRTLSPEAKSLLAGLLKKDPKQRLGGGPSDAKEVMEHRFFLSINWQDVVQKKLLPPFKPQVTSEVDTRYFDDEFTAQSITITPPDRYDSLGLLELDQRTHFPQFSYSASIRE
Chain of Serine/threonine-protein kinase AKT (Homo sapiens) (Q9Y243 whole entry, looked up): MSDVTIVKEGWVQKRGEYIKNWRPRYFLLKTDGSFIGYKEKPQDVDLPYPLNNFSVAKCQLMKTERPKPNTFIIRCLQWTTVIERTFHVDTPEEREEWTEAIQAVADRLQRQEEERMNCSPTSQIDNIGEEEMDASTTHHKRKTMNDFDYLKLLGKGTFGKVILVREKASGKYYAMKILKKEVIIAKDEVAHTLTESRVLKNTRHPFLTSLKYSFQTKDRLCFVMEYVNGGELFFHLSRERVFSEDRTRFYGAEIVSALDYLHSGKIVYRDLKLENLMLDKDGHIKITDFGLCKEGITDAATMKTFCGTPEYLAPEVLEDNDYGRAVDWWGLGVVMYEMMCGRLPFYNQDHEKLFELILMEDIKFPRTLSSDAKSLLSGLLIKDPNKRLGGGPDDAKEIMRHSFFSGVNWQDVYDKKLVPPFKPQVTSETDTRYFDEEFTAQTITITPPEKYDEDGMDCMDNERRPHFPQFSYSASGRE
Chain of Mitogen-activated protein kinase; ERK1/ERK2 (Homo sapiens) (P27361 whole entry, looked up): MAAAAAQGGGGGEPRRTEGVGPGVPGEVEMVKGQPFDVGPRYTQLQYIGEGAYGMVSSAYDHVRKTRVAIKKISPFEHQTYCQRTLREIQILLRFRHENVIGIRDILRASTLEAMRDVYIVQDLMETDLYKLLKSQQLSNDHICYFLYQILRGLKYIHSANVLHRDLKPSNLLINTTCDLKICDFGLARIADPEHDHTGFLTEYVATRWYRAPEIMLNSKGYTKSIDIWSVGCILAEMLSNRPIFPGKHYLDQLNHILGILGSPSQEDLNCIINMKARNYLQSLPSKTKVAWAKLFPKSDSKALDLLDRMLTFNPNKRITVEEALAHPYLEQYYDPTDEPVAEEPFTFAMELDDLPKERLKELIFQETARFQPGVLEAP
Chain of Mitogen-activated protein kinase; ERK1/ERK2 (Homo sapiens) (P28482 whole entry, looked up): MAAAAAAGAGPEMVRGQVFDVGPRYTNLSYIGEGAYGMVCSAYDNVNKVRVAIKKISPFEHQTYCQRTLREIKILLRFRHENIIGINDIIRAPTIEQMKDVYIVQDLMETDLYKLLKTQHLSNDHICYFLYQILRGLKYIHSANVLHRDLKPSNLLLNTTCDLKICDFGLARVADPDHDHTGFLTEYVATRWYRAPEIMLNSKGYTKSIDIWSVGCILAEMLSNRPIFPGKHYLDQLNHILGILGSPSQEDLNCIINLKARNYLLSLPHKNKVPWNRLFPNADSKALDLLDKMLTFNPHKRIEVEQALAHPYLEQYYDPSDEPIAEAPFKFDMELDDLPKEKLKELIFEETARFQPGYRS
Chain of Signal transducer and activator of transcription 3 (Homo sapiens) (P40763 whole entry): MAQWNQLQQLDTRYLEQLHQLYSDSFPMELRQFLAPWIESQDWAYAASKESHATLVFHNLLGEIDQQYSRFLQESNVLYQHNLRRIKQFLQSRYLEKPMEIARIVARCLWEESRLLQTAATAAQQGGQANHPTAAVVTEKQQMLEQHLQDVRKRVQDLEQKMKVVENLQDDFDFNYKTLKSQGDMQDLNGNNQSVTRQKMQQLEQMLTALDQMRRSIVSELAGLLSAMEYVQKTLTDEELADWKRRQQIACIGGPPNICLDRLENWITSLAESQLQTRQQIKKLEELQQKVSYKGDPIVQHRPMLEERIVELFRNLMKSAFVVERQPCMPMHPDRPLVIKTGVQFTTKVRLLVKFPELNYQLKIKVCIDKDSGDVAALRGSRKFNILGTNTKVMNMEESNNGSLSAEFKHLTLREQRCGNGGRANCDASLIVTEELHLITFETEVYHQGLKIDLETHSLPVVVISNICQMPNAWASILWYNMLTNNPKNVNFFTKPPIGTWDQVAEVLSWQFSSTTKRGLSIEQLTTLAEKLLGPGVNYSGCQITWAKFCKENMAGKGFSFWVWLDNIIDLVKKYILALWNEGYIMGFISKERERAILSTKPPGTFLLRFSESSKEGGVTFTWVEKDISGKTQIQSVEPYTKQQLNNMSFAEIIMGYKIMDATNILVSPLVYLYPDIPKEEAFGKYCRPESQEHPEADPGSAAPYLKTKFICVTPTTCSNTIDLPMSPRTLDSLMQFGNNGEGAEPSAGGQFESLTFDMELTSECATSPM
Chain of Transcription factor p65 (Homo sapiens) (Q04206 whole entry): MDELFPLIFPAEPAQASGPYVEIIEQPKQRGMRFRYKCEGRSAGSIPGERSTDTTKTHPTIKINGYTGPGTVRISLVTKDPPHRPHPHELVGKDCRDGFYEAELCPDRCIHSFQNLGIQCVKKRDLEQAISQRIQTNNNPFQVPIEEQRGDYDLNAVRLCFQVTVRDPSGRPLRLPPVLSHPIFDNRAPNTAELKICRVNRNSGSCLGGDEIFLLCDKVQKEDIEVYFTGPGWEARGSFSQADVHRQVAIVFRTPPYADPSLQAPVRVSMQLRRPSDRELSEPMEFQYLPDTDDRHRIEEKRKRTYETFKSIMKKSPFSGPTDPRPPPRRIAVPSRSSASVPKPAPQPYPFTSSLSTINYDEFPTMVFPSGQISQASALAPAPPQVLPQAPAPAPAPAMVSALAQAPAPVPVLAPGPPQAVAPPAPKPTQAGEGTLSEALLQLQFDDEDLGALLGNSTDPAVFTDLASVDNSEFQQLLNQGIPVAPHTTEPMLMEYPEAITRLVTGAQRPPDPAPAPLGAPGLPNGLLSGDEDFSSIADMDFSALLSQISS

IC50 [6]: 32.2 µM | IC50 [7]: 32.8 µM | IC50 [8]: 55.4 µM | inhibition [26]: Active | inhibition [27]: Active | inhibition [28]: Active | inhibition [29]: inactive
Compound: COc1cc2c(c(O)c1OC)-c1c(cc3c(c1OC)OCO3)C[C@H](C)[C@H](C)C2
Activity [1]: Active | Activity [2]: Active | Activity [3]: Active | Activity [4]: inactive | Activity [5]: inactive | IC50 [9]: 53 µM | inhibition [10]: Active | inhibition [11]: Active | inhibition [12]: Active | inhibition [13]: Active | inhibition [14]: Active | inhibition [15]: Active | inhibition [16]: Active | inhibition [17]: inactive | inhibition [18]: inactive | Activity [19]: Active | Activity [20]: Active | Activity [21]: inactive | Activity [22]: Toxic | Activity [23]: Active | Activity [24]: Dose-Dependent Effect | Activity [25]: Active | Activity [30]: Active | inhibition [31]: Active | inhibition [32]: inactive | Activity [33]: Active | Activity [34]: Active | Activity [35]: inactive | Activity [36]: inactive | Activity [37]: inactive | Activity [38]: Active | Activity [39]: inactive | Activity [40]: inactive
